Where a name gives a salt, the structure may show the parent alone. Read-outs that look alike come from different tables or passages of the source.
What was measured:
[1] = test system: TSU-Pr1 human prostate cancer cells; assay: SRB cytotoxicity assay, TSU-Pr1; format: cell-based; conditions: 96 h
Summary of the method: (§1)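 Cells seeded at 1000–5000 per well according to growth rate were treated with compound at 0 to 100 μM for 96 h, in three to five replicates. Surviving cell number was then determined by sulforhodamine B staining after trichloroacetic acid fixation, with absorbance read at 540 nm.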

[2] = test system: LNCaP human prostate cancer cells; assay: SRB cytotoxicity assay, LNCaP; format: cell-based; conditions: 96 h, read-out: IC50 LNCaP
Summary of the method: as §1

[3] = test system: human breast cancer cell line (MCF-7); assay: SRB cytotoxicity assay, MCF-7; format: cell-based; conditions: Homo sapiens, MCF7, read-out: IC50 MCF-7
Summary of the method: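 Cells plated at 1000–5000 per well by growth rate and exposed to compound (0 to 100 μM) for 96 h, three to five replicates. Cell number read by sulforhodamine B: TCA fixation, 0.4% SRB staining, absorbance at 540 nm.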

[4] = test system: PPC-1 human prostate cancer cells; assay: SRB cytotoxicity assay, PPC-1; format: cell-based; conditions: 96 h, read-out: IC50 PPC-1
Summary of the method: as §1

[5] = test system: SKOv-3 human ovarian cancer cell line; assay: SRB cytotoxicity assay, SKOv-3; format: cell-based; conditions: Homo sapiens, SK-OV-3; Table 8
Protocol: (§2) For in vitro cytotoxicity screening, 1000 to 5000 cells were plated into each well of 96-well plates depending on growth rate, and exposed to different concentrations of a test compound for 96 h in three to five replicates. All the compounds were dissolved in dimethyl sulfoxide at 5 to 20 mM, and diluted to desired concentrations in complete culture medium. Cell numbers at the end of the drug treatment were measured by the SRB assay (Gududuru et al., “Synthesis and Biological Evaluation of Novel Cytotoxic Phospholipids for Prostate Cancer,” Bioorg. Med. Chem. Lett. 14:4919-4923 (2004); Rubinstein et at., “Comparison of in vitro Anticancer-Drug-Screening Data Generated with a Tetrazolium Assay Versus a Protein Assay Against a Diverse Panel of Human Tumor Cell Lines,” J. Naatl, Cancer Inst. 82:1113-1118 (1990), each of which is hereby incorporated by reference in its entirety). Briefly, the cells were fixed with 10% of trichloroacetic acid, stained with 0.4% SRB, and the absorbances at 540 nm was measured using a plate reader (DYNEX Technologies, Chantilly, Va.).
(§3) In vitro cytotoxicity assay was performed by the same sulforhodamine B (SRB) assay (described above). The compounds shown in Table 8 below where tested for activity against the breast cancer and ovarian cancer cell lines.

[6] = test system: OVCAR-3 human ovarian cancer cell line; assay: SRB cytotoxicity assay, OVCAR-3; format: cell-based; conditions: Homo sapiens, OVCAR-3; Table 8
Protocol: as §2, §3

[7] = test system: RH7777 rat hepatoma cells; assay: SRB cytotoxicity assay, RH7777 control cell line; format: cell-based; conditions: for IC50: Rattus norvegicus, RH7777, read-out: IC50 RH7777
Summary of the method: as §1

[8] = test system: PC-3 human prostate cancer cells; assay: SRB cytotoxicity assay, PC-3; format: cell-based; conditions: 96 h, read-out: IC50 PC-3
Summary of the method: as §1

[9] = test system: DU-145 human prostate cancer cells; assay: SRB cytotoxicity assay, DU-145; format: cell-based; conditions: 96 h
Summary of the method: as §1

[10] = test system: CaOv-3 human ovarian cancer cell line; assay: SRB cytotoxicity assay, CaOv-3; format: cell-based; conditions: Homo sapiens, Caov-3; Table 8
Protocol: as §2, §3

[11] = test system: CHO cells (CHO-1, CHO-K1); assay: SRB cytotoxicity assay, CHO; format: cell-based; conditions: Table 9; negative control cell line; 96 h
Protocol: as §2, §3
(§4) Cells were exposed to a wide range of concentrations (0 to 100 μM) of the particular compound for 96 h in 96 well plates. Cells were fixed with 10% trichloroacetic acid, washed five times with water. The plates were air dried overnight and fixed cells were stained with SRB solution. The cellular protein-bound SRB was measured at 540 nm using a plate reader. Cell numbers at the end of the treatment were measured.
as §4, with “96-well” for “96 well”, “calculated as a percentage of untreated control.” for “measured.”

[12] = Homo sapiens, TSU-Pr1, Example 10 table, read-out: IC50 TSU-Pr1
[13] = Homo sapiens, LNCaP, Example 10 table
[14] = Table 8, breast cancer cell line
[15] = Homo sapiens, PPC-1, Example 10 table
[16] = Example 10 table, 0 to 100 μM for 96 h
[17] = Homo sapiens, DU-145, read-out: IC50 DU-145, Example 10 table
[18] = Homo sapiens, TSU-Pr1, Table 3, read-out: IC50 TSU-Pr1
[19] = Table 3, control cell line, 96 h
[20] = Homo sapiens, DU-145, read-out: IC50 DU-145, Table 3

Row | SMILES | IC50 [1, 12] [µM] | IC50 [2, 13] [µM] | IC50 ([3]; Example 10 table, 96 h) [µM] | IC50 [3, 14] [µM] | IC50 [4, 15] [µM] | IC50 [5] [µM] | IC50 [6] [µM] | IC50 [7, 16] [µM] | IC50 ([8]; Homo sapiens, Example 10 table) [µM] | IC50 [9, 17] [µM] | IC50 [10] [µM] | IC50 [1, 18] [µM] | IC50 ([2]; Homo sapiens, LNCaP, Table 3) [µM] | IC50 [7, 19] [µM] | IC50 ([8]; Homo sapiens, Table 3) [µM] | IC50 [9, 20] [µM] | further results
1 | CCCCCCCCCCCCCCCCCCNC(=O)[C@H]1CSC(c2ccccc2)N1 (stereo partly drawn) [5-HCI (S), (4S)-N-octadecyl-2-phenylthiazolidine-4-carboxamide] | ~10 | 6.3 | 7.4 | 7.4 | 4 | 18 | 5.2 | 19.1 | > 10 | 7.1 | 18 | – | – | – | – | – | –
2 | CCCCCCCCCCCCCCCCCCNC(=O)[C@@H]1CSC(c2cc(OC)c(OC)c(OC)c2)N1 (mixture of isomers) [Compound 17-HCI, (2RS, 4R)-2-(3,4,5-Trimethoxy-phenyl)-thiazolidine-4-carboxylic acid octadecylamide Hydrochloride] | – | – | – | – | – | 2.7 | 1.4 | – | – | – | 4.4 | 2.4 | 0.82 | 11.4 | 4 | 3.9 | –
3 | Cl.O=C(O)[C@@H]1CSC(c2ccoc2)N1 (mixture of isomers) [Compound 12-HCI, (2RS, 4R)-2-Furan-3-yl-thiazolidine-4-carboxylic acid Hydrochloride] | – | – | – | – | – | 5.4 | 2.3 | – | – | – | 7.7 | 4.2 | 1.7 | 10.4 | 8.1 | 6.6 | IC50 ([4]; Homo sapiens, PPC-1, Table 3): 1.1 µM; Fold less selective against RH7777 cell line than compound 5 [7]: 3 fold
4 | CCCCCCCNC(=O)[C@@H]1CSC(c2ccccc2)N1 (mixture of isomers) [Compound 3-HCI, (2RS, 4R)-2-Phenylthiazolidine-4-carboxylic acid heptylamide Hydrochloride] | 28 | 12.4 | 50.3 | 50.3 | 34.7 | 47.8 | 34 | 52.2 | 38.5 | 44.9 | 19.2 | – | – | – | – | – | –
5 | CCCCCCCCNC(=O)C(CO)NC(=O)CCCCCCC (centres unmarked) [315d] | – | – | – | – | – | – | – | – | – | – | – | – | – | – | – | – | IC50 ([1]; Table 9, read-out: IC50 TSU): 93.8 µM; IC50 ([2]; Table 9): > 100 µM; IC50 ([4]; Table 9): 81.2 µM; IC50 ([8]; Table 9): 81.5 µM; IC50 ([9]; read-out: IC50 DU-145, Table 9): > 100 µM; IC50 [11]: > 100 µM
6 | CCCCCCCCCCCCCCCCCCNC(=O)[C@@H]1CSC(c2ccc(F)cc2)N1 (mixture of isomers) [Compound 19, (2RS, 4R)-2-(4-Fluoro-phenyl)-thiazolidine-4-carboxylic acid octadecylamide] | – | – | – | 8.8 | – | 4.2 | 2.3 | – | – | – | 5.5 | – | – | – | – | – | IC50 ([1]; Homo sapiens, TSU-Pr1, Table 4, read-out: IC50 TSU-Pr1): 5.4 µM; IC50 ([2]; Homo sapiens, LNCaP, Table 4): 1.9 µM; melting point: 65 °C; IC50 ([4]; Homo sapiens, PPC-1, Table 4): 2.1 µM; IC50 ([7]; Table 4, control cell line, 96 h): 17.4 µM; IC50 ([9]; Homo sapiens, DU-145, read-out: IC50 DU-145, Table 4): 5.7 µM
